# Source: patent publication US20250281498A1, “FUSED AMINO PYRIMIDINE COMPOUNDS FOR TREATMENT OF SYNUCLEINOPATHIES AND TDP-43 PROTEINOPATHIES” (Ovid Therapeutics Inc., priority 2024, published 2025)
# Columns and labels:
# [1] = target: T1, KCC2-S940A (Homo sapiens, UniProt Q9H2X9, S963A); experiment: TI+ flux assay, HEK-293 cells expressing KCC2-S940A; assay type: cell-based
# T1 construct: expressed in transfected cells; host or cells: HEK-293
# T1 sequence (Q9H2X9 1-1116 isoform Q9H2X9-2 S940A): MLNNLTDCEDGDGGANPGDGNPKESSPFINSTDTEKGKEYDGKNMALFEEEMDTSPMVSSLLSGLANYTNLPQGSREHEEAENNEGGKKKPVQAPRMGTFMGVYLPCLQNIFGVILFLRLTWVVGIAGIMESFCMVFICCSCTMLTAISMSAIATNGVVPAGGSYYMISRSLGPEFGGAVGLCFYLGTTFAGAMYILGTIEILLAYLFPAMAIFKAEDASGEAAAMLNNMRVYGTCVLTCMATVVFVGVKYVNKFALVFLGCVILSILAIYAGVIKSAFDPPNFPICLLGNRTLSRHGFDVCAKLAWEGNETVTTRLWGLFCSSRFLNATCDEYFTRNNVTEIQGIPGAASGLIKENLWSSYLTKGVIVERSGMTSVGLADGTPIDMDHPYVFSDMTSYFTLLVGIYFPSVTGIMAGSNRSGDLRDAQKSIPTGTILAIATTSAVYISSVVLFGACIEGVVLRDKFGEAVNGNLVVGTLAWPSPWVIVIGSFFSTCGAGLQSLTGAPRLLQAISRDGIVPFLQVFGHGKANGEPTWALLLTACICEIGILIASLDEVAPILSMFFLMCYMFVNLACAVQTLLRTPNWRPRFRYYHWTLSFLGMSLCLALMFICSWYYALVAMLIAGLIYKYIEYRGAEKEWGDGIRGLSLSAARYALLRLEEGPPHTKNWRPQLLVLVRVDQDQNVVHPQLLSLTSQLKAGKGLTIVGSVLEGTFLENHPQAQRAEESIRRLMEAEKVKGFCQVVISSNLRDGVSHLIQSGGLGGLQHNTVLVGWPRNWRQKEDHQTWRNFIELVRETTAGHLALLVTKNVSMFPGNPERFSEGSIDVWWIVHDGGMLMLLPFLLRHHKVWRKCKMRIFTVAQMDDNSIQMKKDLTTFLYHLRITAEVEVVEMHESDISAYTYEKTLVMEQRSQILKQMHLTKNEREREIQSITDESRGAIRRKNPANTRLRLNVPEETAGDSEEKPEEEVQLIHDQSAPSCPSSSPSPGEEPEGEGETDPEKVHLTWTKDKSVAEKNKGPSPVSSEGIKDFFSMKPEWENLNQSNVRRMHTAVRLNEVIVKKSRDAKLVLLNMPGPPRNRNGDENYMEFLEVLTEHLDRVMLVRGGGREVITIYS
# Protocol: FLIPR TI Flux assay. HEK-293 cells were washed with HBSS, and then incubated with loading buffer containing TI sensitive fluorescent dye (https://www.moleculardevices.com), 20 μM bumetanide 20 μM ouabain and 2.5 mM probenecid for 1 h at room temperature (RT) under control conditions or with drugs in the dark using a FlexStation 3 microplate reader (Molecular Devices) and imaged […] for 30 min. Stimulus buffer was added containing 5 mM K^+/0.5 mM Tl^+ and cells were imaged every 1.5 over a 190 second time course The initial rate Tl^+ uptake (Relative Fluorescence Units (RFU) per second) was determined following addition of the stimulus buffer as outlined previously (Conway et al., 2017, supra) (Lee et al., 2022, supra).
# Several studies have shown that the activity and plasma membrane accumulation of KCC2 is potentiated via phosphorylation of S940, a process mediated by the activity of protein kinase C and protein phosphatase 1 (Lee et al., 2011, supra; Lee et al., J Biol Chem 282, 29777-29784 (2007); Moore et al., Proc. Natl. Acad. Sci. U.S.A. 115, 10166-10171 (2018); Moore et al., Trends Neurosci. 40, 555-571 (2017); Silayeva et al., Proc. Natl. Acad. Sci. U.S.A. 112, 3523-3528 (2015)). […] Compared to KCC2, effects on KCC3, KCC4, and NKCC1 were only seen at concentrations more than 35-fold that of KCC2 (>100 μM) (FIG. 1G).
# [2] = test system: 18-20 Div hippocampal neurons; experiment: gramicidin-perforated patch-clamp recording of EGABA in hippocampal neurons; assay type: cell-based, Sprague Dawley; details: 300 nM
# Protocol: Neuronal Cultures. Hippocampal neurons were prepared from Sprague Dawley E18 embryos and plated at 450,000 per dish and maintained at 37° C. in a humidified 5% CO2 incubator for 10-25 days before experimentation (Lee et al., Nat. Neurosci. 14, 736-743 (2011)).
# At this developmental stage, GABAAR receptor activation leads to hyperpolarization, a phenomenon critically dependent upon KCC2 (Kontou et al., J Biol Chem, 100364 (2021)).
# Neuronal Patch clamp assays. Neuronal cell culture recordings were performed in bath saline at 34° C. For gramicidin perforated-patch experiments, pipettes contained (in mM): 140 KCl and 10 HEPES, pH 7.4 KOH. For whole-cell experiments, pipettes contained (in mM): 115 K-meth-SO4, 30 KCl, 2 Mg-ATP, 4 Na-ATP, 0.4 Na-GTP, and 10 HEPES, pH 7.4 KOH. Bath saline contained the following (in mM): 140 NaCl, 2.5 KCl, 2.5 CaCl2, 2.5 MgCl2, 10 HEPES, and 11 glucose, pH 7.4 NaOH (Kontou et al., 2021, supra). All compound solutions were applied to cells using a three-barreled 700 μm pipe positioned just above the cell (Warner Instruments). […] All voltages from whole-cell experiments were corrected offline using a calculated liquid junction potential value (13.6 mV) in Clampex (Molecular Devices). For gramicidin perforated-patch experiments, intracellular Cl^− values were back-calculated using measured EGABA values and the Nernst equation: […]
structure (smiles),measurement,setting,value
"C[C@@H]1CN(c2nc3c(c(Nc4ccc(C5CCCCC5)cc4)n2)COC3)CCO1 [Compound A, (R)—N-(4-cyclohexylphenyl)-2-(2-methylmorpholino)-5,7-dihydrofuro[3,4-d]pyrimidin-4-amine]",activity of KCC2-S940A construct,[1],increased the activity
same,reduction in neuronal Cl−,"[2]; 15 min, calculated from EGABA",2.2 ± 0.6 mM
same,EGABA after treatment,"[2]; at 15 min (from −75±3.1 at 0 min), bumetanide and TTX present",−85.1±4.2 mV
